Results on two molecules are retold here after patent publication US8802433B2, “Macrophage phagocytosis-activating composition and/or composition promoting cytokine production in macrophages” (Aureo Co., Ltd., priority 2009, dated 2014).

The subject of data set [1] is THP-1 cells differentiated into macrophage-like cells. The data set can be described thus: Ability of macrophage-like cells to phagocytose polystyrene beads. In kind it is cell-based, human. As to conditions: 500-fold vs 1000-fold dilution; 1 μM vs 10 μM.
Description: THP-1 cells (refer to FIG. 1 (A)) were seeded in a 24-well plate (Becton Dickinson Labware, Franklin Lakes, N.J.) at 2×10^5 cells/mL per well, and phorbol 12-myristate 13-acetate (PMA) (Wako) was added to each well so as to have a final concentration of 160 nM, and incubated at 37° C. under 5% CO2 for 72 hours, to give macrophage-like cells (refer to FIG. 1 (B)). After incubation, the cells were washed twice with sterilized PBS in order to remove undifferentiated THP-1 cells, and a fresh medium was added thereto, and the mixture was subjected to an experiment. The THP-1 cells differentiated into macrophage-like cells were prepared in a 24-well plate by the method of Test Example 1. Thereto were each added 500-fold and 1000-fold dilutions as final concentration of an Aureobasidium culture fluid, and the mixture was incubated for 4 hours. […] Thereafter, beads with a diameter of 10 μm were added to each well at a final concentration of 2 μL/mL (Trade name “Polybeads dyed violet” manufactured by Polysciences, Inc.), and the mixture was incubated for 3 hours to allow phagocytosis of the beads by the cells. After the incubation, each well was washed 3 times with sterilized PBS in order to remove beads that were not phagocyted. […] The number of beads phagocyted by the macrophage-like cells was measured with a phase contrast microscope. […]
A further data set deals with macrophage-like cells. The data set can be described thus: TNF-α secretion from macrophage-like cells (ELISA). The following applies: added independently or in combination; ELISA of culture fluid. In kind it is cell-based, human. An excerpt:
Since the increase in phagocytosis of macrophage-like cells by the Aureobasidium culture fluid or Compound 1 was inferred to be the result of activity induction in the macrophage-like cells, it was attempted to see if it is true. Specifically, regarding TNF-α, a type of cytokines released by activity induction, how much this substance was secreted into a culture fluid of the macrophage-like cells to which the Aureobasidium culture fluid, Compound 1, or the Aureobasidium culture fluid plus Compound 1 was added was measured by ELISA according to an ordinary method.
In general terms: ELISA stands for enzyme-linked immunosorbent assay.

The subject of data set [2] is THP-1 cells differentiated into macrophage-like cells. The data set can be described thus: Cytokine gene expression in macrophage-like cells (RT-PCR, agarose gel electrophoresis). The following applies: 7 hours, compared to group a (control). In kind it is cell-based, human. Here is the method:
Regarding TNF-α, IL-6, IL-12B, and IL-18, cytokines released when macrophage-like cells underwent activity induction, how much mRNA for these substances expressed in the macrophage-like cells to which the Aureobasidium culture fluid, Compound 1, or the Aureobasidium culture fluid plus Compound 1 was added was measured by RT-PCR according to an ordinary method. Specifically, first, the THP-1 cells differentiated into macrophage-like cells by the method of Test Example 1 were washed twice with PBS to remove undifferentiated THP-1 cells, and then divided into 9 groups, group a, group b, group c, group d, group e, group f, group g, group h, and group i. Subsequently, the Aureobasidium culture fluid and/or Compound 1 was added to each group so as to have the final concentrations as follows, and the mixture was incubated for 7 hours. Next, each group was washed with PBS, thereafter, 1 mL of Trizol (Invitrogen) was added to each, and the mixture was well suspended and left at room temperature for 5 minutes. […] After left at room temperature for 2 minutes, the mixture was centrifuged at 12000×g at 4° C. for 10 minutes. After centrifugation, 400 μL of the upper layer was collected and transferred to a new Eppendorf tube for 1.5 mL, and 500 μL of 2-propanol (Wako) was added and stirred, and then left at room temperature for 5 minutes. […] Thereafter, the mixture was centrifuged at 12000×g at 4° C. for 10 minutes. After centrifugation, the upper layer was discarded, 75% ethanol was added to the precipitate, and the mixture was centrifuged at 12000×g at 4° C. for 10 minutes. After centrifugation, the upper layer was discarded, and the resultant was suspended in 20 μL of milliQ water, thereby collecting the total mRNA. Subsequently, using the total mRNA of each group as a template, RT-PCR was performed using TaKaRa RNA PCR Kit (AMV) Ver 3.0 (TaKaRa), to prepare a template cDNA of each sample. The RT-PCR reaction solution composition and RT-PCR reaction conditions are as described below. […] RT reaction conditions: after reaction at 42° C. for 30 minutes, respective reactions at 95° C. for 5 minutes and 5° C. for 5 minutes were performed for 1 cycle using a thermal cycler (Bio Flux). Subsequently, PCR was performed using the template cDNA of each group as a template, to amplify each cDNA of TNF-α, IL-6, IL-12B, IL-18, and glyceraldehyde-3-phosphate dehydrogenase (GAPDH). Primers, the PCR reaction solution composition, and PCR reaction conditions are as described below. PCR reaction solution composition: 5×PCR buffer 10 μL, milliQ 28.75 μL, Ex Taq 0.25 μL, sense primer 0.5 μL, antisense primer 0.5 μL, whole amount of template cDNA of each sample. PCR reaction conditions: after reaction at 94° C. for 2 minutes, with respective reactions at 94° C. for 30 seconds, 60° C. for 30 seconds, and 72° C. for 1 minute as 1 cycle, 35 cycles were performed. Thereafter, the amount of PCR reaction product was confirmed by performing agarose gel electrophoresis according to the conventional method, whereby the expression levels of mRNA for TNF-α, IL-6, IL-12B, IL-18, and glyceraldehyde-3-phosphate dehydrogenase (GAPDH) were confirmed.

The next data set is described as follows: in vitro. The following applies: human. It is filed as cell-based. How it is done:
In the following Test Examples, the human monocytic leukemia cell line THP-1 or human leukemia T cell line, Jurkat cell line was incubated at 37° C. under 5% CO2 for culture in the RPMI 1640 medium (containing 10% fetal bovine serum (FBS), 75 mg/L kanamycin, and 3.5 μL/L 2-mercaptoethanol).
In order to study the cytotoxicity of 5-FU on Jurkat cells, 5-FU was studied by MTT method. Jurkat cells prepared as 2.0×10^5 cells/mL were placed in a 96-well plate (Corning). 5-FU was added thereto so as to have final concentrations of 0, 10, 100, and 1000 μM, and the cells were then exposed thereto in a CO2 incubator at 37° C. for 24 hours. At the time point of the exposure over 23 hours, 10 μL of 3-[4,5-dimethylthiazol-2-yl]-2,5-diphenyltet-razolium bromide (MTT solution) (Wako) was added to each well, and the cells were then exposed thereto at 37° C. for 1 hour. After the exposure, the mixture was centrifuged at 1200 rpm for 5 minutes, the supernatant was discarded, 100 μL per well of DMSO was added, and the mixture was measured for absorbance at 570 nm using a microplate reader. […] Therefore, DMSO was added to dissolve the formazan precipitate, and the absorbance of the solution was measured at 570 nm. When the cells are alive, formazan is produced, and thus the solution can be measured at 570 nm.

The test system of a further data set is Jurkat cells. The data set can be described thus: Exposure of phosphatidylserine in apoptotic Jurkat cells (Annexin V / propidium iodide, flow cytometry). It is filed as cell-based, human. The following applies: Jurkat cells exposed to 250 μM 5-FU (250 μM or 500 μM tested), 24 hours. Here is the method:
Whether the cytotoxicity of 5-FU on Jurkat cells was caused by apoptosis was studied. In early apoptosis, phosphatidylserine (PS) localized on the inside of cell membrane exposes to the outside. PS is a molecule also relating to the recognition and phagocytosis of apoptotic cells by macrophages. The PS exposure is measured, whereby induction of early apoptosis can be confirmed. In late apoptosis, the cell membrane breaks, and the internal components leak out thereof. Therefore, the cells are combined with propidium iodide (PI) which is a membrane impermeable fluorescent dye, whereby the late apoptotic cells and early apoptotic cells can be clearly separated (refer to FIG. 3).
(A flow cytometer gives signals particle by particle.)

Take `CCOCc1nc2c(N)nc3ccccc3c2n1CC(C)(C)O` [Compound 1, 4-Amino-2-(ethoxymethyl)-a,a-dimethyl-1H-imidazo[4,5-c]quinoline-1-ethanol]: the “working concentration giving higher phagocytosis of polystyrene beads” value in data set [1] is “higher for 1 μM”. Further, the “TNF-α secreted as compared to the case of adding nothing” value in the data set with macrophage-like cells is on record as “larger amount”. In addition, in data set [2] (group b: Compound 1 1 μM), the “expression level of mRNA for IL-12B” value is recorded as “increased”, the “expression level of mRNA for IL-18” value was “increased” and the “expression level of mRNA for TNF-α” value is recorded as “increased”. In data set [2] (group c: Compound 1 10 μM), the “expression level of mRNA for IL-6” value was “increased”, the “expression level of mRNA for IL-12B” value is reported as “increased” and the “expression level of mRNA for IL-18” value is “increased”.

Take `O=c1[nH]cc(F)c(=O)[nH]1` [Compound 5-FU, 5-fluorouracil]: in the data set “in vitro”, the IC50 at 24 h turned out to be 450 µM. Besides, the “PS exposure (early apoptosis)” value in the data set with Jurkat cells was “much PS exposure”.

The term IC50 denotes the concentration at which inhibition is half-maximal. Low values mean higher potency, high ones lower potency.
